In patent US6355676B1, “Fumaric acid micro tablets” (Fumapharm AG, priority 1998, dated 2002):
Structures can show the parent of a compound that is named as a salt.

Key:
[1] = system: human mononuclear cells of the peripheral blood (PBMC); assay: Endotoxin-stimulated TNF-α secretion in PBMC; assay type: cell-based
Description: (§1) With multiple re-exposure, the endotoxin-induced increase in TNF-α secretion is reduced, i.e. adaptation takes place.

isolated monocytes = assay: Endotoxin-stimulated TNF-α secretion in isolated monocytes; assay type: cell-based, human; conditions: initial exposure
Description: as §1

COC(=O)/C=C/C(=O)O [methyl hydrogen fumarate]
endotoxin-stimulating TNF-α secretion ([1]; initial exposure, PBMC): initially increases | endotoxin-induced increase in TNF-α secretion ([1]; multiple re-exposure, cell type not restated): reduced | endotoxin-stimulating TNF-α secretion (isolated monocytes): initially increases
